ChEMBL document CHEMBL1201862, “PubChem BioAssay data set” (2004)
The source made the active and inactive calls.

How the values were obtained:
Large T antigen = Large T antigen (Simian virus 40, UniProt P03070); type: functional, Betapolyomavirus macacae;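 note: Confirmatory-stage PubChem screen for compounds that inhibit SV40 T antigen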
[1] = target: Induced myeloid leukemia cell differentiation protein Mcl-1 (Homo sapiens, UniProt Q07820); type: functional
Albumin = Albumin (Bos taurus, UniProt P02769); test: Counterscreen for inhibitors of T-cell receptor (TCR)-CD3 interaction: Fluorescence-based biochemical high throughput dose response assay to identify inhibitors of T-cell receptor (TCR)-CD3 interaction using a TAMRA-labeled BSA probe.; type: functional
[2] = target: T1, Alkaline phosphatase, tissue-nonspecific isozyme (Homo sapiens, UniProt P05186); test: activation of tissue-nonspecific alkaline phosphatase – biochemical, TNAP isozyme, mouse IAP uHTS hits, selectivity assay for mouse IAP activator project, dose response (AID 488880); type: functional
T1 sequence (P05186 whole entry): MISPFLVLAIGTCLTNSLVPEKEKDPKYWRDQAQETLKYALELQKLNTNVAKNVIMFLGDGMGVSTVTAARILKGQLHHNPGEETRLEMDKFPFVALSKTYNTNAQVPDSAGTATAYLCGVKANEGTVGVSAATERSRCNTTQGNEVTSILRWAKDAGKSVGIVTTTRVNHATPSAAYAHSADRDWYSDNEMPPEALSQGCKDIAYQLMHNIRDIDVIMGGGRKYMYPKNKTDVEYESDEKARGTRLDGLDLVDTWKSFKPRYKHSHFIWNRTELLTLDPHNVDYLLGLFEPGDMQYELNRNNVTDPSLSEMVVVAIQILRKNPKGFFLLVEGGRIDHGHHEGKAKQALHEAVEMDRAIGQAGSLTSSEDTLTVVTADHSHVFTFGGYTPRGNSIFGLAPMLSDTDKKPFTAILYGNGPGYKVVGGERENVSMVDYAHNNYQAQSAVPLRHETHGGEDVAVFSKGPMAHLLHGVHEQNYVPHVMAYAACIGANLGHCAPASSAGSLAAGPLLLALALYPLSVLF

[3] = target: Ras and Rab interactor 1/Tyrosine-protein kinase ABL1 (Homo sapiens, UniProt P00519+Q13671); type: functional;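 note: biochemical TR-FRET dose-response test measuring inhibition of binding between Rin1 and Abl proteins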
[4] = target: Intestinal-type alkaline phosphatase (Mus musculus, UniProt P24822); test: mouse intestinal alkaline phosphatase activators, dose response, biochemical, luminescence, uHTS hits (AID 488783); type: functional
[5] = target: Intestinal-type alkaline phosphatase (Homo sapiens, UniProt P09923); test: activation of human intestinal alkaline phosphatase – biochemical, dose response (AID 488873); type: functional
Caspase-6 = target: T2, Caspase-6 (Homo sapiens, UniProt P55212); test: inhibition of CASP6 peptide cleavage – biochemical, VEID-R110 fluorescence, cherry-pick, dose response (AID 720632)
T2 sequence (P55212 whole entry): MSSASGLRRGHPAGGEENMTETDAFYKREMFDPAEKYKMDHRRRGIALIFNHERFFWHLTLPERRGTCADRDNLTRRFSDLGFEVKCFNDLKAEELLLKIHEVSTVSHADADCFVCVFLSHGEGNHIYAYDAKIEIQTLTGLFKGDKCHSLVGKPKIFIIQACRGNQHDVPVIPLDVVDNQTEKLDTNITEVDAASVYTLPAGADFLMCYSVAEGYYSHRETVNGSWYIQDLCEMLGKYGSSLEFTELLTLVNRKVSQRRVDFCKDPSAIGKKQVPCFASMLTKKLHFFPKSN

Caspase-7 = Caspase-7 (Homo sapiens, UniProt P55210); test: caspase-7 enzyme inhibition, selectivity check – biochemical, DEVD-R110 fluorescence, cherry-pick, selectivity assay for caspase-6 inhibitor project, dose response (AID 743295); type: functional
[6] = target: Eukaryotic translation initiation factor 4H (Homo sapiens, UniProt Q15056); test: eIF4H binding inhibition – biochemical, uHTS, fluorescence polarization, translation initiation inhibitor project, primary screen (AID 2012)
[7] = target: Polyadenylate-binding protein 1 (Homo sapiens, UniProt P11940); test: blockers of PABP interaction with poly(A) – biochemical, fluorescence polarization, […] (AID 2014)
Cannabinoid receptor 1 [8] = target: T3, Cannabinoid receptor 1 (Homo sapiens, UniProt P21554); test: SAR analysis of agonists of the Cannabinoid Receptor 1 using an Image-Based Assay - Set 2. [Related pubchem assays (depositor defined):AID2013, AID2026]; type: functional
Cannabinoid receptor 2 [9] = target: T4, Cannabinoid receptor 2 (Homo sapiens, UniProt P34972); test: SAR analysis of antagonists of the Cannabinoid Receptor 2 using an Image-Based Assay. [Related pubchem assays (depositor defined):AID2013, AID2026]; type: functional
[10] = target: T5, G-protein coupled receptor 35 (Homo sapiens, UniProt Q9HC97); test: SAR analysis of Antagonists of the GPR35 Receptor using an Image-Based Assay - Set 3. [Related pubchem assays (depositor defined):AID2013, AID2026]; type: functional
Streptokinase A = target: T6, Streptokinase A (Streptococcus pyogenes serotype M1, UniProt P10520); test: viability-normalized secreted streptokinase activity reduction – plasminogen activation absorbance, OD405, dose response (AID 1914); type: functional, Streptococcus pyogenes M1 GAS;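 note: secreted streptokinase activity via plasminogen activation per viability signal from cell pellet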
T6 sequence (P10520 whole entry): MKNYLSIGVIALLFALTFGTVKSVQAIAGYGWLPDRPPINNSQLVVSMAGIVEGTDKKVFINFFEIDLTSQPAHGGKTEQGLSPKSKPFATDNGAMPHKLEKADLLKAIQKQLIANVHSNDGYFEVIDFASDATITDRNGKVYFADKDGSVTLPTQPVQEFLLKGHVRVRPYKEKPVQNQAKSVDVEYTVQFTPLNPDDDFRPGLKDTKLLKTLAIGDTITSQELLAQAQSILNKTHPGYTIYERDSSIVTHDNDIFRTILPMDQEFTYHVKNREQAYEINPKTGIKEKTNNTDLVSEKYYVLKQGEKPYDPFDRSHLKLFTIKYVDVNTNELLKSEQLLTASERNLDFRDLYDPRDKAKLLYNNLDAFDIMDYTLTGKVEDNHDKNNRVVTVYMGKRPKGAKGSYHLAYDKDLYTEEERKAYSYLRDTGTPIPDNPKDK

[11] = target: T5, G-protein coupled receptor 35; test: SAR analysis of Agonists of the GPR35 Receptor using an Image-Based Assay - Set 2. [Related pubchem assays (depositor defined):AID2013, AID2026]; type: functional
Cannabinoid receptor 1 [12] = target: T3, Cannabinoid receptor 1; test: SAR analysis of antagonists of the Cannabinoid Receptor 1 using an Image-Based Assay - Set 2. [Related pubchem assays (depositor defined):AID2013, AID2026]; type: functional
[13] = target: T7, G-protein coupled receptor 55 (Homo sapiens, UniProt Q9Y2T6); test: blockade of LPI-induced GPR55 arrestin translocation – imaging, U2OS, beta-arrestin-GFP, LPI agonist, set 2, SAR follow-up (AID 2820); type: functional
Cannabinoid receptor 2 [14] = target: T4, Cannabinoid receptor 2; test: SAR analysis of agonists of the Cannabinoid Receptor 2 using an Image-Based Assay. [Related pubchem assays (depositor defined):AID2013, AID2026]; type: functional
[15] = target: T7, G-protein coupled receptor 55; test: inhibition of LPI-stimulated GPR55 beta-arrestin translocation – imaging, U2OS, beta-arrestin-GFP, LPI agonist, primary screen (AID 2013); type: functional;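 note: antagonist potency measured as reduced agonist-driven arrestin aggregation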
[16] = target: Delta-type opioid receptor (Homo sapiens, UniProt P41143); test: SAR Analysis of Antagonists of the DOR Receptor using an Image-Based Assay - Set 3. [Related pubchem assays (depositor defined):AID1777, AID1785]; type: functional;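 note: U2OS cells expressing DOR1 and beta-arrestin GFP stimulated with 100 nM SNC80; imaging of GFP-tagged beta-arrestin moving into spots after receptor activation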
Mu-type opioid receptor = Mu-type opioid receptor (Homo sapiens, UniProt P35372); test: SAR Analysis of Antagonists of the MOR Receptor using an Image-Based Assay - Set 3. [Related pubchem assays (depositor defined):AID1777, AID1785, AID1786, AID1966, AID2133, AID2136, AID2284, AID2285, AID2420]; type: functional
[17] = target: T8, Kappa-type opioid receptor (Homo sapiens, UniProt P41145); test: SAR analysis of small molecule agonists of the kappa opioid receptor via a luminescent beta-arrestin assay - Set 3. [Related pubchem assays (depositor defined):AID1777, AID1785, AID1786, AID1966, AID2133, AID2136, AID2284, AID2500]; type: functional
[18] = target: T8, Kappa-type opioid receptor; test: SAR analysis of Antagonists of the Kappa Opioid Receptor (KOR) using an Image-Based Assay - Set 4. [Related pubchem assays (depositor defined):AID1777, AID1785]; type: functional
[19] = target: T9, Tyrosine-protein phosphatase non-receptor type 22 (Homo sapiens, UniProt Q9Y2R2); test: SAR LYP1 Fluorescent Assay using OMFP substrate for In Vitro dose response studies - Set 2. [Related pubchem assays (depositor defined):AID1779, AID1784, AID2140, AID449726, AID488869]; type: functional
T9 sequence (Q9Y2R2 whole entry): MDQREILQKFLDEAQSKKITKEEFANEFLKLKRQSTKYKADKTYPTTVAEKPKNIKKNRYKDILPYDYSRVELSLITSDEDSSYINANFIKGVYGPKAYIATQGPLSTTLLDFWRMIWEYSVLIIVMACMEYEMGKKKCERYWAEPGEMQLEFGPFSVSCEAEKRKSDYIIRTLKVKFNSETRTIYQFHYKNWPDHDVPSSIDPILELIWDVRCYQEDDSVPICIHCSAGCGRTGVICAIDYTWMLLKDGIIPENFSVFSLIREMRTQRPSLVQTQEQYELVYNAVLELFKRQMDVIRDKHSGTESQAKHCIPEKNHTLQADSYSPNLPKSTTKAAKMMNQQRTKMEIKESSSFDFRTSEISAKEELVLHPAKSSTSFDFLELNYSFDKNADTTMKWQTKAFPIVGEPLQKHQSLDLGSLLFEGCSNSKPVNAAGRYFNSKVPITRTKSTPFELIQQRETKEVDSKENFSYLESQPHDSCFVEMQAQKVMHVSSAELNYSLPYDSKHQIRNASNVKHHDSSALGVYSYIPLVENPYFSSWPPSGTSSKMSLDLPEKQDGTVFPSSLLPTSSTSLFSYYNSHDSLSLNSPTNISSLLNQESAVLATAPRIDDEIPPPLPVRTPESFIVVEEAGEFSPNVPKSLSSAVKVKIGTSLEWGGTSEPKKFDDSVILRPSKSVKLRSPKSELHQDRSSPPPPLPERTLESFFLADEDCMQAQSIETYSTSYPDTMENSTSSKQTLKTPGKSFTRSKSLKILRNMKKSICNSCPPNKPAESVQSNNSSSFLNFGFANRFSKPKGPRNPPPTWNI

[20] = target: T9, Tyrosine-protein phosphatase non-receptor type 22; test: SAR LYP1 Fluorescent Assay using OMFP substrate for In Vitro dose response studies - Set 3. [Related pubchem assays (depositor defined):AID1779, AID1784, AID2140, AID2686]; type: functional
[21] = target: T9, Tyrosine-protein phosphatase non-receptor type 22; test: inhibition of lymphoid tyrosine phosphatase LYP – biochemical, pCAP fluorogenic substrate, fluorescence, set 3, SAR follow-up (AID 449727); type: functional
[22] = target: T10, Tyrosine-protein phosphatase non-receptor type 7 (Homo sapiens, UniProt P35236); test: inhibition of hematopoietic tyrosine phosphatase HePTP – biochemical, set 2, SAR follow-up (AID 449736); type: functional
T10 sequence (P35236 whole entry): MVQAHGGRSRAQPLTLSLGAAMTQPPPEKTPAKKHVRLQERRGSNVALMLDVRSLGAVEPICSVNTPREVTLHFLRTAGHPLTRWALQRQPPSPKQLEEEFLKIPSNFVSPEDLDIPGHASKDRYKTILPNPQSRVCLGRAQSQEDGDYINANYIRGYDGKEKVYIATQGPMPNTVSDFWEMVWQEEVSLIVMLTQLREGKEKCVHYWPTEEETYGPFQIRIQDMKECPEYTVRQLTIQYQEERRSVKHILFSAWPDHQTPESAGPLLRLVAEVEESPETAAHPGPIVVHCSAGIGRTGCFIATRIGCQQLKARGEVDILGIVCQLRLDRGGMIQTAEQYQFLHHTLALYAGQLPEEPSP

[23] = target: Tyrosine-protein phosphatase non-receptor type 12 (Homo sapiens, UniProt Q05209); test: SAR Selectivity Analysis of small molecule inhibitors of PEST using pCAP in a fluorescence assay. [Related pubchem assays (depositor defined):AID1779, AID1784, AID2135]; type: functional
[24] = target: T9, Tyrosine-protein phosphatase non-receptor type 22; test: SAR LYP1 Fluorescent Assay using pCAP substrate for In Vitro dose response studies - Set 2. [Related pubchem assays (depositor defined):AID1779, AID1784, AID2135, AID449727]; type: functional

T3 sequence (P21554 whole entry): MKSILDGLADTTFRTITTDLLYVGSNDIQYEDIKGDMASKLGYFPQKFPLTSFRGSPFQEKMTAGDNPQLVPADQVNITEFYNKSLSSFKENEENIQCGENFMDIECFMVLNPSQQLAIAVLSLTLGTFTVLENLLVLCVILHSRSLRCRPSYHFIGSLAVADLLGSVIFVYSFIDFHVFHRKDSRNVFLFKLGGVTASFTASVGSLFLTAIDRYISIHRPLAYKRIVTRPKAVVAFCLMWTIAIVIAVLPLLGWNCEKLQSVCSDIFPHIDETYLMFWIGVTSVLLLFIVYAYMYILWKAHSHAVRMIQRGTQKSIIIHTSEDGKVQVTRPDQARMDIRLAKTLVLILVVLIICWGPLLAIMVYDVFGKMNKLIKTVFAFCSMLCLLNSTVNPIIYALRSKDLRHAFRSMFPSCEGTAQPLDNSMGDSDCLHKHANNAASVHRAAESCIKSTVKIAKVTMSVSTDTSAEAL
T5 sequence (Q9HC97 whole entry): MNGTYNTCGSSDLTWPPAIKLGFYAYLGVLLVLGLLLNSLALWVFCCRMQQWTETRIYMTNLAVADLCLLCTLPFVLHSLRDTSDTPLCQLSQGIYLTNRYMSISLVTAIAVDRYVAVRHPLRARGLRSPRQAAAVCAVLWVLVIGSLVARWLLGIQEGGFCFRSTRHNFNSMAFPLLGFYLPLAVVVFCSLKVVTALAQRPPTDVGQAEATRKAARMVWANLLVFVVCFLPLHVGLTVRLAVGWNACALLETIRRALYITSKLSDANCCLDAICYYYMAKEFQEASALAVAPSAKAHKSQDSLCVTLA
T7 sequence (Q9Y2T6 whole entry): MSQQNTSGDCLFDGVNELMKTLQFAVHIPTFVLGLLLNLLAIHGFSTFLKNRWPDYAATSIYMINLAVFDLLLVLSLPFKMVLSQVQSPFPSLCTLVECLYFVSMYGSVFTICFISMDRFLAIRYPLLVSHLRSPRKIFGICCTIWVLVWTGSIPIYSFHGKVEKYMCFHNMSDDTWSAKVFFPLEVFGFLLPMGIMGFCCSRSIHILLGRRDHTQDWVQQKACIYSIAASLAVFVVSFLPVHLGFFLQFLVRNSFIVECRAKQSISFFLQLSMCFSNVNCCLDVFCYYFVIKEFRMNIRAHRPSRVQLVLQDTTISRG
T8 sequence (P41145 whole entry): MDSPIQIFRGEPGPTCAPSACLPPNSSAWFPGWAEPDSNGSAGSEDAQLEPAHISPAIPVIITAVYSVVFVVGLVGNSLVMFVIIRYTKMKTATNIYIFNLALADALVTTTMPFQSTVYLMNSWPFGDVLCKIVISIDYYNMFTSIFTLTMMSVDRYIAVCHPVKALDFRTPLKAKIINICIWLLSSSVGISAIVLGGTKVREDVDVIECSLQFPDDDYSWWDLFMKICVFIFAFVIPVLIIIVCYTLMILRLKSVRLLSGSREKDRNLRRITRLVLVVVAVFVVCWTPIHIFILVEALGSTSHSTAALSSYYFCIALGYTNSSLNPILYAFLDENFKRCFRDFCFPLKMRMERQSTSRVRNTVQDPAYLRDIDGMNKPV
T4 sequence (P34972 whole entry): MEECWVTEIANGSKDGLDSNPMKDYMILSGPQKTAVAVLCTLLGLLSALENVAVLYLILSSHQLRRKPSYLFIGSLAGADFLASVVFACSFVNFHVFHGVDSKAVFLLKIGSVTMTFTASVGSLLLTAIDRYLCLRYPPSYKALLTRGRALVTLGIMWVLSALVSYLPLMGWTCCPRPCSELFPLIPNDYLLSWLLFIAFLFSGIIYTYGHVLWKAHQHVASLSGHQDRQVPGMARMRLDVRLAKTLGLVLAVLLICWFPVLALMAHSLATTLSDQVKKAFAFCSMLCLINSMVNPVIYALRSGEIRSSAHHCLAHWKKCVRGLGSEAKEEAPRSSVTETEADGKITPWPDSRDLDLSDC
Delta-type opioid receptor, sequence (P41143 whole entry): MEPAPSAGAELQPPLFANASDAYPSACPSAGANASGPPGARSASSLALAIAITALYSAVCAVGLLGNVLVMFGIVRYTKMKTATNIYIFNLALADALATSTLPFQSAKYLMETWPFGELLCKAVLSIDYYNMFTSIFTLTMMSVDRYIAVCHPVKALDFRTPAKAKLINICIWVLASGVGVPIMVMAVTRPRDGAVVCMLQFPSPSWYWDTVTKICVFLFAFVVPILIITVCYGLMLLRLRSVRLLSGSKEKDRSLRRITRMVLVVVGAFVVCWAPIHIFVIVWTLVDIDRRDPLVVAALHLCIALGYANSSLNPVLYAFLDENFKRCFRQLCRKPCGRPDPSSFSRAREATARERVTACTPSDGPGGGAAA
Induced myeloid leukemia cell differentiation protein Mcl-1, sequence (Q07820 whole entry): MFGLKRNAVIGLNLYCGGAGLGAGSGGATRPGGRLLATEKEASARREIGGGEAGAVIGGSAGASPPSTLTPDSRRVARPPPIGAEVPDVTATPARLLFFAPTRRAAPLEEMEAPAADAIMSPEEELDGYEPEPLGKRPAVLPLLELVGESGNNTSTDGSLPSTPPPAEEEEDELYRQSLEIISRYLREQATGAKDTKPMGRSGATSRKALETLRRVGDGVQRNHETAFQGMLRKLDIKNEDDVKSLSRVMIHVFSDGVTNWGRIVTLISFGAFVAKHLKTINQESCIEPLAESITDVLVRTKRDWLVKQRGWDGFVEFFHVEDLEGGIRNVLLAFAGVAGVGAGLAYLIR
Tyrosine-protein phosphatase non-receptor type 12, sequence (Q05209 whole entry): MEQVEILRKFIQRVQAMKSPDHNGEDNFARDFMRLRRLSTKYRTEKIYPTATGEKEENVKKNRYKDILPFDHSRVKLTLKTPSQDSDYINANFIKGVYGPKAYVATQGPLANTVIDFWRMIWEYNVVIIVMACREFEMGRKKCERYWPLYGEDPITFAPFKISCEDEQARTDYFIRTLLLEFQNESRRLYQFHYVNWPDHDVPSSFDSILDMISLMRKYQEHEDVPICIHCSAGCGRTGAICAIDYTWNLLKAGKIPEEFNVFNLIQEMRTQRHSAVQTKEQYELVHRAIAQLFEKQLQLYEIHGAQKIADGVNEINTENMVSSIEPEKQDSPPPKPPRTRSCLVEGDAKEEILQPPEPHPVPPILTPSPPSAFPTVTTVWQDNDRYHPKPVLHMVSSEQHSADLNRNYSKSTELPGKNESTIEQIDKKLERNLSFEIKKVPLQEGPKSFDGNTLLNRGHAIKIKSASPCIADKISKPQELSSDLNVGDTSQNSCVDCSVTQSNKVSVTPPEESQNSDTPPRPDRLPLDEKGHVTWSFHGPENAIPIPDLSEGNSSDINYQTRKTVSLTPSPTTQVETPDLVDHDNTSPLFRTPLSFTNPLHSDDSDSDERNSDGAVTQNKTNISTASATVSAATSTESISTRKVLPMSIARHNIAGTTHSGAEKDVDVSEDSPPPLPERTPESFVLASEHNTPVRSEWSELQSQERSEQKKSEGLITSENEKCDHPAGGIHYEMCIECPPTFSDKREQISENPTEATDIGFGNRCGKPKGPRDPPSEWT
Intestinal-type alkaline phosphatase (Homo sapiens, UniProt P09923), sequence (P09923 whole entry): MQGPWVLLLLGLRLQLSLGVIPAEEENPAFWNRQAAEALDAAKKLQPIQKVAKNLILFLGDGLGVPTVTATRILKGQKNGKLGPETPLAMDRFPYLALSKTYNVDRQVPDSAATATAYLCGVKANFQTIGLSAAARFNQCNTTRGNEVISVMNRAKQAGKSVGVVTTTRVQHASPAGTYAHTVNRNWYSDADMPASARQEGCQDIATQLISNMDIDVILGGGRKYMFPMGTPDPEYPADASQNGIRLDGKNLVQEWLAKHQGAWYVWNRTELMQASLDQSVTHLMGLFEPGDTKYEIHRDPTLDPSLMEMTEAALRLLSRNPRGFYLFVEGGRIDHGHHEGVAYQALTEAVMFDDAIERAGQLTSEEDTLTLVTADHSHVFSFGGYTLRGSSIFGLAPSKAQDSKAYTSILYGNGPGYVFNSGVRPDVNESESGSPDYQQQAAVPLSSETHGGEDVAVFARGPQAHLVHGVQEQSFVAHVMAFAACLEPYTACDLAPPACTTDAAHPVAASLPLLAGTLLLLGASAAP
Polyadenylate-binding protein 1, sequence (P11940 whole entry): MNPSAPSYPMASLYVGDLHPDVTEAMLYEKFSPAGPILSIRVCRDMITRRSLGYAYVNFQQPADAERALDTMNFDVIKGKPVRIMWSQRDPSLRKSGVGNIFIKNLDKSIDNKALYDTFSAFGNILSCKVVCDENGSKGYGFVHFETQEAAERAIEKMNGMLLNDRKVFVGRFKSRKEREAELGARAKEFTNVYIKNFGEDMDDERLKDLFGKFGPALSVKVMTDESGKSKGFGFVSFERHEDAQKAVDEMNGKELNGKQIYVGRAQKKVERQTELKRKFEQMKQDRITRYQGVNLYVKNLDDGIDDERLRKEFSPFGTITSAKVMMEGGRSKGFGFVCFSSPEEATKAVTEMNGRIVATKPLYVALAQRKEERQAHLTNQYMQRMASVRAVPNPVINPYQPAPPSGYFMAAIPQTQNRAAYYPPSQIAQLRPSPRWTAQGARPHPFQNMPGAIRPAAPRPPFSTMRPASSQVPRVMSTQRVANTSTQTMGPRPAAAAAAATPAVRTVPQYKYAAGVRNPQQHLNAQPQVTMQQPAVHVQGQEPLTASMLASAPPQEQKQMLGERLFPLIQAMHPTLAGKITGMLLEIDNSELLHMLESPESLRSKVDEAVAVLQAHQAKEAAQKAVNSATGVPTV
Mu-type opioid receptor, sequence (P35372 whole entry): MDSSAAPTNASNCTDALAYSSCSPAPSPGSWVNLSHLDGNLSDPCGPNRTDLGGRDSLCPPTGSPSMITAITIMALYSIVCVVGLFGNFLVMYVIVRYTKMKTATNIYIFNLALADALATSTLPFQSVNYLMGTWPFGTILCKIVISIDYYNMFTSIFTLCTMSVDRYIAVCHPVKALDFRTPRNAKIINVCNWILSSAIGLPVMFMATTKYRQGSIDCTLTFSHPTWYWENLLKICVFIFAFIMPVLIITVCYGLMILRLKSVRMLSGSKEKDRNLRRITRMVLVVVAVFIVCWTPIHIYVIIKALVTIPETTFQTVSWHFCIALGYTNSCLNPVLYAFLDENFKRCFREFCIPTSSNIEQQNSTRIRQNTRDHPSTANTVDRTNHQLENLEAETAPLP

SMILES: O=C(O)CC(CCc1ccccc1)OC1OC(CO)C(O)C(O)C1O (stereo not given)
- IC50 (Large T antigen): 57.6 µM (active)
- IC50 [1]: 1.61 µM (active)
- IC50 (Albumin): > 94.1 µM (inactive)
- EC50 [2]: 57.6 µM (active)
- IC50 [3]: 50.2 µM (inactive)
- EC50 [4]: 33.7 µM (active)
- EC50 [5]: 59.2 µM (active)
- AC50 (Caspase-6): 0.283 µM (active)
- AC50 (Caspase-7): 30.9 µM (active)
- IC50 [6]: 23.6 µM (active)
- IC50 [7]: 69.4 µM (active)

SMILES: COc1ccc(NS(=O)(=O)c2ccc3nc(COc4cccc5ccccc45)[nH]c3c2)cc1
- EC50 (Cannabinoid receptor 1 [8]): > 32 µM (inactive)
- IC50 (Cannabinoid receptor 2 [9]): > 32 µM (inactive)
- IC50 [10]: > 32 µM (inactive)
- EC50 (Streptokinase A): 6.16 µM (active)
- EC50 [11]: > 32 µM (inactive)
- IC50 (Cannabinoid receptor 1 [12]): 2.24 µM (active)
- IC50 [13]: 1.45 µM (active)
- EC50 (Cannabinoid receptor 2 [14]): > 32 µM (inactive)
- IC50 [15]: 1.76 µM (active)

SMILES: CC(C)OC(=O)C1(N(Cc2ccco2)C(=O)c2ccccn2)CCCCC1
- IC50 [16]: > 32 µM (inactive)
- IC50 (Mu-type opioid receptor): 15 µM (inactive)
- EC50 [17]: > 20 µM (inactive)
- IC50 [18]: > 32 µM (inactive)

SMILES: O=C(O)COc1ccccc1/C=N/NC(=O)c1ccc(-c2csc(Nc3ccc(Cl)cc3)n2)cc1
- IC50 [19]: 5.67 µM (active)
- IC50 [20]: 1.29 µM (active)
- IC50 [21]: 3.5 µM (active)
- IC50 [22]: 0.841 µM (active)
- IC50 [23]: 1.49 µM (active)
- IC50 [24]: 4.1 µM (active)
